Data published in patent publication US20220017516A1, “LOX INHIBITORS” (THE INSTITUTE OF CANCER RESEARCH: ROYAL CANCER HOSPITAL, priority 2018, published 2022).
Where a chain is given by its changes, count along the chain named. pIC50: −log10 of the molar value.

Columns and labels:
LOXL2 = biological target: T1, LOXL2 (Homo sapiens, UniProt Q9Y4K0); test: LOX isoform activity assay (ROS Glo), LOXL2; assay type: biochemical; conditions: 1 hr incubation with enzyme; read-out: LOXL2 IC50 b) 1 hr
T1 construct: purchased R&D Systems/Bio-techne
T1 sequence (Q9Y4K0 26-774): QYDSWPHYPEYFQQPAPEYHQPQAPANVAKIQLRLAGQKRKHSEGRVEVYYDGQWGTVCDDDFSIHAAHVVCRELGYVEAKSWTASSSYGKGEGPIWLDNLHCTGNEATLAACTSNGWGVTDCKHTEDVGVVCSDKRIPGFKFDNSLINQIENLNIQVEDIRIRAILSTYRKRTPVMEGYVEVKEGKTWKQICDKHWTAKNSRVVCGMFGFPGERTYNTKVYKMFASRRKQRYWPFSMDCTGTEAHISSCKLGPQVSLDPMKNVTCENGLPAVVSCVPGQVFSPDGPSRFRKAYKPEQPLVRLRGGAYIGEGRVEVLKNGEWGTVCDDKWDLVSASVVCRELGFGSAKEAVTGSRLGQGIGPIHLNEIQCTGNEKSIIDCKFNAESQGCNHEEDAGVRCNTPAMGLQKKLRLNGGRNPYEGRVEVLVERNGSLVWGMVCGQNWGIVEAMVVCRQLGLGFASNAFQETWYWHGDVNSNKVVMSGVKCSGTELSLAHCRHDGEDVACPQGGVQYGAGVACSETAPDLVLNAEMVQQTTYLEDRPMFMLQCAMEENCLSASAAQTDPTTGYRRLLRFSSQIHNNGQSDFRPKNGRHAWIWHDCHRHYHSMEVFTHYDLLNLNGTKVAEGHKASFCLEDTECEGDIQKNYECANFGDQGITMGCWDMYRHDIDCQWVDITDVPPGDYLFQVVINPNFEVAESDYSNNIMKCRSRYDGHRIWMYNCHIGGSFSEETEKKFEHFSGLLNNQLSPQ
Description: (§1) LOX was extracted from pig skin by previously described methods (Shackleton and Hulmes, 1990). LOXL2 and LOXL3 were obtained from R&D Systems/Bio-techne. The Promega ROS Glo assay kit (G8821) was used to assess enzyme activity. Overall, test compound was added to either 384 well assay plates (Greiner) using a Labcyte Echo™ Acoustic Handler or to 96 well plates for a final assay concentration of 100, 30, 10, 3, 1, 0.3, 0.1, 0.03, 0.01 and 0.003 μM final assay concentration. Enzymes were diluted according to specific pre-determined activity in assay buffer (100 mM CHES, pH 9, 0.05% (w/v) pluronic F-127, 0.5% (w/v) BSA, 1 mM MgCl2, 1 M urea, 100 mM NaCl) and added to the plate. For LOXL2, the mixture was incubated for 20 min, 1 h or 20 h; for LOX and LOXL3, incubation time was 1 h. Cadaverine and H2O2 substrate were then added to each well (final assay concentration 19.56 mM and 25 μM respectively) and the plates were incubated for 1.5 h (for LOX) or 1 h (for LOXL2 and LOXL3) at room temperature. Finally, luciferin detection reagent was added and plates were incubated for 20 min at room temperature, protected from light. Luminescence was measured using a BMG LABTECH PHERAstar FS reader and resulting IC50 values were calculated using GraphPad Prism software.
In another setting, LOXL2 enzyme was diluted according to specific pre-determined activity in assay buffer (100 mM CHES, pH 9, 0.05% (w/v) pluronic F-127, 0.5% (w/v) BSA, 1 mM MgCl2, 1 M urea, 100 mM NaCl). Overall, 0.5 μl test compound was added to 40 μl assay buffer+LOXL2 at 100, 30, 10, 3, 1, 0.3, 0.1, 0.03, 0.01 and 0.003 μM (final concentration) in a 96-well white polystyrene, flat bottom plates (Fisher) and incubated for the indicated time at room temperature. 10 μl of assay buffer containing 97.8 mM cadaverine and 125 μM H2O2 substrate (final assay concentration 19.56 mM and 25 μM respectively) were added to each well and plates were incubated for 1 h at room temperature. Finally, 50 μl per well luciferin detection reagent was added and plates were incubated for 20 min at room temperature, protected from light. Luminescence was measured with an integration time of 500 ms per well using a SpectaMax M5 plate reader and resulting IC50 values were calculated using GraphPad Prism software.

LOXL3 = biological target: T2, LOXL3 (Homo sapiens, UniProt P58215); test: LOX isoform activity assay (ROS Glo), LOXL3; assay type: biochemical; conditions: 1 h incubation with enzyme
T2 construct: purchased R&D Systems/Bio-techne
T2 sequence (P58215 26-753): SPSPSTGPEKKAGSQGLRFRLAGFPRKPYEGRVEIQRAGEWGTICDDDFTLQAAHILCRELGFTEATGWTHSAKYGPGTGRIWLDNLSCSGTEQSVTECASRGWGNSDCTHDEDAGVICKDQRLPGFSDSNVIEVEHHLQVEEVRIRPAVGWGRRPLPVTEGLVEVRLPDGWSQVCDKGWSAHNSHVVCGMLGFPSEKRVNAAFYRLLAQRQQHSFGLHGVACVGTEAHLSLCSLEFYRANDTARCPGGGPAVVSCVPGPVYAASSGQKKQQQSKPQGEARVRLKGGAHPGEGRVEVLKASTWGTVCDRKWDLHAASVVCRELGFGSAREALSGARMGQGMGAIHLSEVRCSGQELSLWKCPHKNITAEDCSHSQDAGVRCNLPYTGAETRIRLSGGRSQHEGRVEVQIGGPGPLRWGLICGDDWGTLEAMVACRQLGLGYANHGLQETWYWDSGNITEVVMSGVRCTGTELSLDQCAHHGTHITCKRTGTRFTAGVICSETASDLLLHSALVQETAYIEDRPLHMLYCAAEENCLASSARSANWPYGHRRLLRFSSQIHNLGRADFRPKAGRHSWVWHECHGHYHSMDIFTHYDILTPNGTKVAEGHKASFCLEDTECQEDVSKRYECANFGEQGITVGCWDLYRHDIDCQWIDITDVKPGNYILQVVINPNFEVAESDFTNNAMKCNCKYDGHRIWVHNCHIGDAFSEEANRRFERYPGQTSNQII
Description: as §1

LOX [1] = biological target: T3, LOX (Sus scrofa, UniProt P45845); test: LOX isoform activity assay (ROS Glo), LOX; assay type: biochemical, pig; conditions: 1 h incubation with enzyme
T3 construct: LOX was extracted from pig skin by previously described methods; from tissue; host or cells: pig skin
T3 sequence (P45845 1-249): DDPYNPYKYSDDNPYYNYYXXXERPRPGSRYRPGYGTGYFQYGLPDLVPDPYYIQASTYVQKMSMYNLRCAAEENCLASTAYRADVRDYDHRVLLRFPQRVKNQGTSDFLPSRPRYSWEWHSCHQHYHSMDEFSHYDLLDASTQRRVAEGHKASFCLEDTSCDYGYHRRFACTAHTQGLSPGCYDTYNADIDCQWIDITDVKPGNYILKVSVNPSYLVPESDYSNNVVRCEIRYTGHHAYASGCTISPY
Description: as §1

LOX [2] = biological target: T4, LOX (Mus musculus, UniProt P28301); test: LOX activity in cysts assay (roGFP2 LOX biosensor in MDCK cysts); assay type: cell-based; conditions: LOX, read-out: Cyst LOX @ 10 uM (% inhibition)
T4 construct: Full length LOX cDNA was then PCR cloned into pEGFP-N1 (Clonetech), or biosensor vector proGFP2—N1; expressed in transfected cells; host or cells: MDCK cells grown as cysts on Matrigel
T4 sequence (P28301 163-411): T3 sequence (P45845 1-249) with X20D, X21T, X22Y, Y31N, T80S, S142N, N188A, K202Q, S224T, E231D
Description: All cell lines used in this study were purchased from American Type Culture Collection (ATCC). Mycoplasma contamination was routinely monitored by PCR. Cells used were not found to be Mycoplasma positive. MDCK cell lines were cultured in Dulbecco's Modified Eagle Medium (DMEM) supplemented with 10% fetal bovine serum (FBS) and 1% Penicillin Streptomycin solution (Pen Strep). For GFP constructs transfection in MDCK cells, lipofectamine 3000 was used according to manufactures protocols. Cells were either selected with G418 (Life Technologies) at 5 mg/ml. All cell culture reagents were purchased from Life Technologies.
To produce MDCK cysts, cells were cultured on Matrigel (Corning) with 2% Matrigel supplemented in DMEM with 10% FBS. Cysts were allowed to form for 10 days before subsequent studies.
Mouse LOX cDNA was purchased from OriGene. Full length LOX cDNA was then PCR cloned into pEGFP-N1 (Clonetech), or biosensor vector proGFP2—N1 (Hanson, 2004) using the following primers, […] (forward primer) and […] (reverse primer). For the insertion into pEGFP-N1 or proGFP2—N1, Nhel and Xhol restriction sites were added to forward and reverse primers accordingly. Mutant LOX constructs were made using QuickChange II site-directed mutagenesis kit (Agilent Technologies) following manufacture's protocol using LOX-GFP as template. To generate, roGFP2 versions of LOX mutant constructs, LOX mutant cDNA was transferred from pEGFP-N1 to proGFP2—N1 using Nhel and Xhol.
All photomicrographs were taken with a Leica TCS SP8 X confocal system. For LOX biosensor imaging, live MDCK cysts were used. The oxidised biosensor was excited using a 405 nm laser, while the reduced biosensor was excited with a 488 nm laser. Emission of the biosensor was recorded at 500 nm-530 nm range using sequential scans. Ratio images were generated following a published protocol {Kardash, 2011 #376}. Note, while the published protocol generates YFP/CFP ratio images, we used it to generate Oxidised/Reduced (roGFP2 ratio) ratio images. The roGFP2 ratio at the basal surface of MDCK cysts was used to indicate LOX inhibition. LOX inhibitors were added 30 min prior to imaging.
For clarity, readout for DMSO treated cysts represents 0% inhibition (no inhibition) and readout for BAPN at 1 mM is used as 100% inhibition (full inhibition).

NCCS(=O)(=O)C(F)C(=O)N1C[C@@H]2CN(c3c(F)c(F)c(F)c(F)c3F)C[C@@H]2C1 (stereo partly drawn) [Example 20, 2-((2-aminoethyl)-sulfonyl)-2-fluoro-1-(cis-5-(perfluoro-phenyl)hexahydro-pyrrolo[3,4-c]pyrrol-2(1H)-yl)ethan-1-one]
pIC50 (LOXL2): 6.62
pIC50 (LOXL3): 6.47
pIC50 (LOX [1]): 5.62

CCOc1ccc(N2C[C@H]3CN(C(=O)Nc4ccc(S(=O)(=O)CCN)cc4)C[C@@H]2C(C)(C)C3)cc1 [Example 37, (1S,5S)—N-(4-((2-aminoethyl)sulfonyl)phenyl)-6-(4-ethoxyphenyl)-9,9-dimethyl-3,6-diazabicyclo[3.2.2]nonane-3-carboxamide]
inhibition at 10 µM (LOX [2]): 78%
pIC50 (LOXL2): 4.70
pIC50 (LOX [1]): 4.59

NCCS(=O)(=O)C(F)C(=O)N1C[C@@H]2CN(c3ccc(F)cc3)C[C@@H]2C1 (mixture of isomers) [Example 18]
pIC50 (LOXL2): 6.64
pIC50 (LOXL3): 6.36
pIC50 (LOX [1]): 5.64

NCCS(=O)(=O)C(F)C(=O)N1C[C@@H]2CN(c3ccc(Br)cc3)C[C@@H]2C1 (stereo partly drawn) [Example 19, 2-((2-Aminoethyl)-sulfonyl)-2-fluoro-1-(cis-5-(4-bromo-phenyl)hexahydro-pyrrolo[3,4-c]pyrrol-2(1H)-yl)ethan-1-one]
pIC50 (LOXL2): 6.82
pIC50 (LOXL3): 6.66
pIC50 (LOX [1]): 6.18
